# Laboratory results as given in patent US20110280806A1, “DYE CONJUGATE IMAGING AGENTS” (priority 2008, published 2011).
# Experiment: Absorbance of Dye A vs cyanine dye Cy7 (diode array spectrophotometer)
# Assay type: physicochemical
# Details: 2.5 μM solution, DMSO diluted in PBS
# Protocol: (a) Absorbance and fluorescence of Dye A vs Cyanine Dye Cy7.
# 0.1 to 0.2 mg vials of the dyes were dissolved initially in 100 μl DMSO and then diluted in PBS to the specified concentrations. Absorbance measurements were performed on 2.5 μM solutions, with a HP 8452A Diode array spectrophotometer. Fluorescence measurements were performed on 250 nM solutions, with a Varian Cary Eclipse Fluorescence Spectrophotometer at standardised instrument settings (600V PMT setting).
measured absorbance equates to (molar extinction) (at 746 nm),measured absorbance equates to (molar extinction) (at 748 nm),Compound
"260,000 /M/cm",–,"CN1C2=C/C(=C/C=C/C3=CC4=[N+](C)c5ccccc5C4(C)C(C)(C)C3)CC(C)(C)C2(C)c2ccccc21 (centres unmarked) [Dye A, 4,4,4a,9-Tetramethyl-2-(3-(1E-4,4,4a,9-tetramethyl-4,4a-dihydro-3H-carbazol-2-ylidenyl)prop-1-enyl)-4,4a-dihydro-3H-carbazolium iodide]"
–,"250,000 /M/cm",CCN1C(=CC=CC=CC=CC2=[N+](CCCCCC(=O)O)c3ccc(S(=O)(=O)O)cc3C2(C)C)C(C)(C)c2cc(S(=O)(=O)[O-])ccc21 [Cy7]
